# Laboratory results reported in patent US4118561A, “7-(Substituted)-7H-pyrrolo[3,2-f]quinazoline-1,3-diamines” (priority 1977, dated 1978).
# Like-named read-outs stand apart in the source and are kept apart here.
# Columns and labels:
# Escherichia coli W-102 = assay: In vivo antibacterial synergism (mouse), Escherichia coli W-102; design: species or system Escherichia coli (infected mice, CD-1); conditions: mice, p.o.; for PD50 SM/Cpd. (compound part): 0 hours; for PD50 SM/Cpd. (compound part) / CD50 SM/Cpd. (compound part): 20160 min; for CD50 SM/Cpd. (compound part): 6 hours
# Method: (§1) The test agents are weighed, suspended in 0.5% aqueous carboxymethyl cellulose, homogenized (glass tissue grinder) and diluted according to the design of the experiment. Mice (male, 18±1 g., CD-1 strain) are pre-weighed, pooled, infected at random intraperitoneally with a 0.5 ml. standardized suspension (LD95 ±5%) of the bacterial organism in 5% gastric mucin and treated at random with single doses of the test agents either at the time of infection or six hours after infecting. The treated groups consist of ten mice per dosage level. Deaths are recorded daily for 14 days and the PD50 (mice are treated at time of infection) and CD50 (mice are treated six hours after infecting) values are calculated by the method of Reed and Muench [Amer. J. Hyg., 27, 493 (1938)].
# Proteus mirabilis 190 = assay: In vivo antibacterial synergism (mouse), Proteus mirabilis 190; design: species or system Proteus mirabilis (infected mice, CD-1); conditions: mice, p.o.; for ED50: Proteus mirabilis, 190, po, 336 h; for PD50 SM/Cpd. (compound part): 0 hours; for PD50 SM/Cpd. (compound part) / CD50 SM/Cpd. (compound part): 20160 min; for CD50 SM/Cpd. (compound part): 6 hours
# Method: as §1
# S. aureus Smith = assay: In vitro antibacterial activity (MIC), S. aureus Smith; conditions: Staphylococcus aureus, 18 h
# N. catarrhalis 8193 = assay: In vitro antibacterial activity (MIC), N. catarrhalis 8193; conditions: 18 h
# K. pneumoniae 10031 = assay: In vitro antibacterial activity (MIC), K. pneumoniae 10031; conditions: Klebsiella pneumoniae, 10031, 18 h
# S. aureus 53-180 = assay: In vitro antibacterial activity (MIC), S. aureus 53-180; conditions: Staphylococcus aureus, 53180, 18 h
# Proteus vulgaris 347 = assay: In vivo antibacterial synergism (mouse), Proteus vulgaris 347; design: species or system Proteus vulgaris (infected mice, CD-1); conditions: mice, p.o.; for ED50: Proteus vulgaris, 347, po, 336 h; for PD50 SM/Cpd. (compound part): 0 hours; for PD50 SM/Cpd. (compound part) / CD50 SM/Cpd. (compound part): 20160 min; for CD50 SM/Cpd. (compound part): 6 hours
# Method: as §1
# S. paratyphi 11737 = assay: In vitro antibacterial activity (MIC), S. paratyphi 11737; assay type: cell-based; conditions: Salmonella enterica, 18 h
# [1] = tested on: lymphocytic leukemia P-388; assay: Activity in mice against lymphocytic leukemia P-388; assay type: in vivo; conditions: Mus musculus, P388, ip; mice, I.P., 20 mg/kg; read-out: T/C
# bacterial infections = assay: Synergism with sulfamethoxazole against bacterial infections in mice, oral; assay type: in vivo
# Method: The invention also provides compounds which will potentiate the antibacterial effects of sulfa drugs.
# as §1
# Proteus mirabilis 3 = assay: In vivo antibacterial synergism (mouse), Proteus mirabilis 3; design: species or system Proteus mirabilis (infected mice, CD-1); conditions: mice, p.o.; for PD50 SM/Cpd. (compound part): 0 hours, 20160 min
# Method: as §1
# P. vulgaris 6896 = assay: In vitro antibacterial activity (MIC), P. vulgaris 6896; conditions: Proteus vulgaris, 6896, 18 h
# E. coli 9637 = assay: In vitro antibacterial activity (MIC), E. coli 9637; conditions: Escherichia coli, 9637, 18 h
# [2] = treated 0 hours after infecting, read-out: PD50 (agent alone)
# [3] = treated 6 hours after infecting, read-out: CD50 (agent alone)
smiles,measurement,setting,value
"N#Cc1ccc(Cn2ccc3c4c(N)nc(N)nc4ccc32)cc1 [Example 16, 7-[(4-cyanophenyl)methyl]-7H-pyrrolo[3,2-f]-quinazoline-1,3-diamine]",ED50,"Escherichia coli W-102; Escherichia coli, W102, po, 336 h, treated 0 hours after infecting, read-out: PD50 (agent alone)",> 800 mg/kg
same,PD50 SM/Cpd. (compound part),Escherichia coli W-102; with SM 3.13 mg. per kg.,67.8 mg. per kg.
same,PD50 SM/Cpd. (compound part),Escherichia coli W-102; with SM 6.25 mg. per kg.,53.1 mg. per kg.
same,PD50 SM/Cpd. (compound part),Escherichia coli W-102; with SM 12.5 mg. per kg.,15.6 mg. per kg.
same,PD50 SM/Cpd. (compound part),Escherichia coli W-102; with SM 25.0 mg. per kg.,15.9 mg. per kg.
same,CD50 SM/Cpd. (compound part),Escherichia coli W-102; with SM 12.5 mg. per kg.,50 mg. per kg.
same,CD50 SM/Cpd. (compound part),Escherichia coli W-102; with SM 25 mg. per kg.,89 mg. per kg.
same,CD50 SM/Cpd. (compound part),Escherichia coli W-102; with SM 50 mg. per kg.,37 mg. per kg.
same,ED50,Proteus mirabilis 190; [2],18.6 mg/kg
same,ED50,Proteus mirabilis 190; [3],159 mg/kg
same,PD50 SM/Cpd. (compound part),Proteus mirabilis 190; with SM 0.39 mg. per kg.,> 12.50 mg. per kg.
same,PD50 SM/Cpd. (compound part),Proteus mirabilis 190; with SM 0.78 mg. per kg.,8.78 mg. per kg.
same,PD50 SM/Cpd. (compound part),Proteus mirabilis 190; with SM 1.56 mg. per kg.,3.39 mg. per kg.
same,PD50 SM/Cpd. (compound part),Proteus mirabilis 190; with SM 3.11 mg. per kg.,2.44 mg. per kg.
same,CD50 SM/Cpd. (compound part),Proteus mirabilis 190; with SM 0.39 mg. per kg.,> 6.25 mg. per kg.
same,CD50 SM/Cpd. (compound part),Proteus mirabilis 190; with SM 0.78 mg. per kg.,> 6.25 mg. per kg.
same,CD50 SM/Cpd. (compound part),Proteus mirabilis 190; with SM 1.56 mg. per kg.,4.0 mg. per kg.
same,CD50 SM/Cpd. (compound part),Proteus mirabilis 190; with SM 3.11 mg. per kg.,2.33 mg. per kg.
same,MIC,S. aureus Smith,0.244 µg/mL
same,MIC,N. catarrhalis 8193,0.0076 µg/mL
same,MIC,K. pneumoniae 10031,0.061 µg/mL
same,MIC,S. aureus 53-180,0.122 µg/mL
same,ED50,Proteus vulgaris 347; [2],> 200 mg/kg
same,ED50,Proteus vulgaris 347; [3],> 400 mg/kg
same,PD50 SM/Cpd. (compound part),Proteus vulgaris 347; with SM 0.78 mg. per kg.,> 12.5 mg. per kg.
same,PD50 SM/Cpd. (compound part),Proteus vulgaris 347; with SM 1.56 mg. per kg.,> 12.5 mg. per kg.
same,PD50 SM/Cpd. (compound part),Proteus vulgaris 347; with SM 3.13 mg. per kg.,9.67 mg. per kg.
same,PD50 SM/Cpd. (compound part),Proteus vulgaris 347; with SM 6.25 mg. per kg.,6.25 mg. per kg.
same,CD50 SM/Cpd. (compound part),Proteus vulgaris 347; with SM 3.11 mg. per kg.,7.28 mg. per kg.
same,CD50 SM/Cpd. (compound part),Proteus vulgaris 347; with SM 6.25 mg. per kg.,8.83 mg. per kg.
same,CD50 SM/Cpd. (compound part),Proteus vulgaris 347; with SM 12.5 mg. per kg.,4.66 mg. per kg.
same,CD50 SM/Cpd. (compound part),Proteus vulgaris 347; with SM 25 mg. per kg.,5.07 mg. per kg.
same,MIC,S. paratyphi 11737,0.488 µg/mL
same,response vs control in vivo at 20 mg/kg,[1],138%
same,synergistic effect with sulfamethoxazole,bacterial infections,synergistic effect
same,ED50,"Proteus mirabilis 3; Proteus mirabilis, 3, po, 336 h, treated 0 hours after infecting, read-out: PD50 (agent alone)",22.7 mg/kg
same,PD50 SM/Cpd. (compound part),Proteus mirabilis 3; with SM 0.78 mg. per kg.,7.11 mg. per kg.
same,PD50 SM/Cpd. (compound part),Proteus mirabilis 3; with SM 1.56 mg. per kg.,6.56 mg. per kg.
same,PD50 SM/Cpd. (compound part),Proteus mirabilis 3; with SM 3.13 mg. per kg.,2.28 mg. per kg.
same,PD50 SM/Cpd. (compound part),Proteus mirabilis 3; with SM 6.25 mg. per kg.,2.11 mg. per kg.
same,MIC,P. vulgaris 6896,1.95 µg/mL
same,MIC,E. coli 9637,0.244 µg/mL
